Source: patent US20200079860A1, “METHODS AND COMPOSITIONS FOR TUMOR THERAPY” (MEMORIAL SLOAN KETTERING CANCER CENTER, priority 2015, published 2020)

Test system: B16F10 cells
Assay: mouse bilateral tumor model (B16 murine melanoma); one tumor injected, contralateral non-injected
Format: in vivo, C57BL/6 mice
Protocol: By injecting only one of two tumors throughout the course of the experiment it is possible to separate the effect of the injected tumor from the “abscopal” effect on the distant non-injected tumor. Once treatment begins, tumors are measured twice weekly for at least 90 days.
Also, unless indicated otherwise, controls were treated with isotype control antibodies and vehicle only. Furthermore, unless indicated otherwise, all experiments were performed using the mouse bilateral tumor model described below and summarized in FIG. 2.
The animals used had large tumors in two opposite flanks. One tumor was injected while the second remained non-injected (FIG. 2), allowing separate analysis of the effect at the injected tumor from the so-called ‘abscopal’ effect at the non-injected tumor, in order to understand how this treatment could benefit patients with metastatic cancer. […] C57BL/6 mice were initially implanted with 5×10^5 syngeneic B16F10 cells intra-dermally in bilateral flanks. 8 days post tumor cell implantation, when bilateral tumors measured ˜0.5 cm, intratumoral (IT) treatment with various test agents was initiated together with intraperitoneal (IP) anti-PD-1 mAb. […]
8 days post tumor cell implantation, when bilateral tumors measured ˜0.5 cm, intratumoral (IT) treatment with agents selected to activate APCs was initiated together with intraperitoneal (IP) anti-PD-1 mAb. […]

Row | Molecule | substitution for MPL in the treatment (FIG. 35B) | survival on concurrent addition of systemic chemotherapy (added IP to intratumoral MPL, anti-IL10R, and anti-CD40)
1 | PolyIC | can be substituted for MPL, albeit possibly with slightly reduced activity | 
2 | O=C1[O][Pt]2([NH][C@@H]3CCCC[C@H]3[NH]2)[O]C1=O [oxaliplatin] |  | increased survival
